Experimental data from ChEMBL document CHEMBL1909046, “DrugMatrix in vitro pharmacology data”.

Legend:
[1] = biological target: Beta-3 adrenergic receptor (Homo sapiens, UniProt P13945); test: DRUGMATRIX: Adrenergic beta3 radioligand binding (ligand: [125I] Cyanopindolol); format: cell membranes, HEK293, Membrane; conditions: Not Active = under 50% inhibition at 10 µM
Thromboxane-A synthase = biological target: T1, Thromboxane-A synthase (Homo sapiens, UniProt P24557); test: biochemical; format: tissue-based, Platelet;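 also: enzyme inhibition assay with PGH2 supplied as substrate; in other assays of this panel Not Active means under 50% inhibition at 10 µM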
T1 sequence (P24557 whole entry): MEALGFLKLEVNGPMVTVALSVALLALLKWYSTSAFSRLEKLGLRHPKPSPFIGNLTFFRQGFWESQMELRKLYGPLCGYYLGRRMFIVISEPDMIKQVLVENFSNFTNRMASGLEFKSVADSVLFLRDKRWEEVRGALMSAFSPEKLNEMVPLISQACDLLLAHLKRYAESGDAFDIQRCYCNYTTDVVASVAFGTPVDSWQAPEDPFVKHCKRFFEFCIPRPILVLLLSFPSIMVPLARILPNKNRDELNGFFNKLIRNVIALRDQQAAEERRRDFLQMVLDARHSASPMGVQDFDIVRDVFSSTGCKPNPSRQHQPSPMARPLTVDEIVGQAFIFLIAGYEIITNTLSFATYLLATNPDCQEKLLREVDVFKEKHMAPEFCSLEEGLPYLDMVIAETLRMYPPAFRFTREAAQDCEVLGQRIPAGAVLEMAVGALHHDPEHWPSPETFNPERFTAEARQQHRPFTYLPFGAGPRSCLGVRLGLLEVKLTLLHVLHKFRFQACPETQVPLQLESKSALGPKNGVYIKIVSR

Cannabinoid receptor 1 = Cannabinoid receptor 1 (Homo sapiens, UniProt P21554); format: cell membranes, Chem-1, Membrane; conditions: chem-1; also: in other assays of this panel Not Active means under 50% inhibition at 10 µM
Carbonic anhydrase 2 = Carbonic anhydrase 2 (Homo sapiens, UniProt P00918); test: DRUGMATRIX: Carbonic Anhydrase II enzyme inhibition (substrate: 4-Nitrophenyl acetate (4-NPA)); format: tissue-based, Erythrocyte; conditions: Not Active = under 50% inhibition at 10 µM
[2] = DRUGMATRIX: Glutamate, Kainate radioligand binding (ligand: [3H] Kainic acid); format: cell membranes, Rattus norvegicus, Wistar, Brain, Membrane; conditions: Not Active = under 50% inhibition at 10 µM
[3] = biological target: T2, Muscarinic acetylcholine receptor M2 (Homo sapiens, UniProt P08172); format: cell membranes, CHO-K1, Membrane; also: in other assays of this panel Not Active means under 50% inhibition at 10 µM
T2 sequence (P08172 whole entry): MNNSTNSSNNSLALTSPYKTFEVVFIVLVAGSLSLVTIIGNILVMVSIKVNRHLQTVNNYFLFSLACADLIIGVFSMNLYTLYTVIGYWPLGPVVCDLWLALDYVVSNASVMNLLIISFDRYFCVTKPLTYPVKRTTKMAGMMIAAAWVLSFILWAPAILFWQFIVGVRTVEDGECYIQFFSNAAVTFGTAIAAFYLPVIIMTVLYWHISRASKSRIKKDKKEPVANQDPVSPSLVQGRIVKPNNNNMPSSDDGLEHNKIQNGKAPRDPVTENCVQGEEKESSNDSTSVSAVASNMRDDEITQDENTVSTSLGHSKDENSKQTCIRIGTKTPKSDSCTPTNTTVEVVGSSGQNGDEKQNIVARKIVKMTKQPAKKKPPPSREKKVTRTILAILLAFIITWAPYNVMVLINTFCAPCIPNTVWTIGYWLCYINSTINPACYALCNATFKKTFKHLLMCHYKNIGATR

Beta-3 adrenergic receptor, sequence (P13945 whole entry): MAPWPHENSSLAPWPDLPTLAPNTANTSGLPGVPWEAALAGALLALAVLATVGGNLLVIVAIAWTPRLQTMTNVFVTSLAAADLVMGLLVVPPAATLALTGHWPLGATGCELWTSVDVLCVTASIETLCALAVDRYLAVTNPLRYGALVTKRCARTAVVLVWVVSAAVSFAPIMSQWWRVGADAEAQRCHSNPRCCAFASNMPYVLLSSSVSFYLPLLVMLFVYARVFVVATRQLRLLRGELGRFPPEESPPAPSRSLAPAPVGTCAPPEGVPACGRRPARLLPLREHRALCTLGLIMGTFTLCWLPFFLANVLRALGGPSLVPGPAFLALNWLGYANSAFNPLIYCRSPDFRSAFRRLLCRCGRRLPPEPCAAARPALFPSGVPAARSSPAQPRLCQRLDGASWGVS
Cannabinoid receptor 1, sequence (P21554 whole entry): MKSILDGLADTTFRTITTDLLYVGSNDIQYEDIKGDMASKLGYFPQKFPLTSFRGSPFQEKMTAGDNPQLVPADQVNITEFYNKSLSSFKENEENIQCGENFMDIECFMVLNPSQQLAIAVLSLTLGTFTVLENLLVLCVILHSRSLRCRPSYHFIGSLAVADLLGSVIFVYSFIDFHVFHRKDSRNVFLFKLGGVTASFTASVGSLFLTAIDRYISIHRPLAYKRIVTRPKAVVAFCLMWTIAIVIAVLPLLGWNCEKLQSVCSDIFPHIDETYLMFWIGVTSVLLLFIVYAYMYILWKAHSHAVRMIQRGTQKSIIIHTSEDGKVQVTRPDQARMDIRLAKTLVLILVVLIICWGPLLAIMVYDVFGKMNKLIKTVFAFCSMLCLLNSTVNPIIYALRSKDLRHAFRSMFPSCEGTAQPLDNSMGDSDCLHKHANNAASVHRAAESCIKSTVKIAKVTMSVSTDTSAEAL

Structure (SMILES) | IC50 ([1]; hek293) | IC50 (Thromboxane-A synthase; platelet) | IC50 (Cannabinoid receptor 1) | IC50 (Carbonic anhydrase 2; erythrocyte) | IC50 [2] | Ki [2] | IC50 ([3]; cho-k1) | IC50 (Thromboxane-A synthase; read-out: IC50) [µM] | IC50 ([1]; read-out: IC50) [µM] | Ki ([1]; read-out: Ki) [µM] | IC50 (Carbonic anhydrase 2; read-out: IC50) [µM] | IC50 ([3]; read-out: IC50) [µM] | Ki ([3]; read-out: Ki) [µM] | Ki ([3]; cho-k1)
Nc1ccc(C(=O)O)c(O)c1 [AMINOSALICYLIC ACID] | Not Active | Not Active | Not Active | Not Active | Not Active | Not Active | Not Active | – | – | – | – | – | – | –
Nc1nc(N)c2nc(CNc3ccc(C(=O)N[C@@H](CCC(=O)O)C(=O)O)cc3)cnc2n1 [AMINOPTERIN] | Not Active | Not Active | Not Active | Not Active | Not Active | Not Active | Not Active | – | – | – | – | – | – | –
c1ccc(Cn2ccnc2)cc1 | Not Active | – | Not Active | Not Active | Not Active | Not Active | Not Active | 0.602 | – | – | – | – | – | –
CC(C)(C#N)c1cc(Cn2cncn2)cc(C(C)(C)C#N)c1 [ANASTROZOLE] | Not Active | Not Active | Not Active | Not Active | Not Active | Not Active | Not Active | – | – | – | – | – | – | –
COc1cc(/C=C/C(=O)O)ccc1O [FERULATE] | Not Active | Not Active | Not Active | Not Active | Not Active | Not Active | Not Active | – | – | – | – | – | – | –
COc1cc([C@@H]2c3cc4c(cc3[C@H](O)[C@H]3COC(=O)[C@H]23)OCO4)cc(OC)c1OC [PODOFILOX] | Not Active | Not Active | Not Active | Not Active | Not Active | Not Active | Not Active | – | – | – | – | – | – | –
C[N+](C)(C)CCOC(N)=O.[Cl-] [CARBACHOL] | Not Active | Not Active | Not Active | Not Active | Not Active | Not Active | Not Active | – | – | – | – | – | – | –
CC1(COc2ccc(CC3SC(=O)NC3=O)cc2)CCCCC1 (centres undefined) [CIGLITAZONE] | – | Not Active | Not Active | – | Not Active | Not Active | – | – | 17.9 | 13.4 | 0.086 | 21.1 | 7.5 | –
Oc1ncnc2[nH]ncc12 [ALLOPURINOL] | Not Active | Not Active | Not Active | Not Active | Not Active | Not Active | Not Active | – | – | – | – | – | – | –
Cc1cc(C(C)(C)C)c(O)c(C)c1CC1=NCCN1 [OXYMETAZOLINE] | Not Active | Not Active | Not Active | Not Active | Not Active | Not Active | Not Active | – | – | – | – | – | – | –
CC(C)Cn1cnc2c(N)nc3ccccc3c21 [IMIQUIMOD] | Not Active | Not Active | Not Active | Not Active | Not Active | Not Active | – | – | – | – | – | – | – | Not Active
